Measured values: US20130330412A1, “SMART POLYMERIC NANOPARTICLES WHICH OVERCOME MULTIDRUG RESISTANCE TO CANCER THERAPEUTICS AND TREATMENT-RELATED SYSTEMIC TOXICITY” (THE JOHNS HOPKINS UNIVERSITY, priority 2010, published 2013)
One block for each molecule: values may come before it.

What was measured:
[1] = cited from earlier work
C57BL/6 wild-type mice [2] = assay: Hemoglobin and leukocyte counts in cardiotoxicity study (FIG. 16d); type: in vivo; settings: 9 mg/kg DOX equivalent i.v. once weekly for 4 weeks
C57BL/6 wild-type mice [3] = assay: Glutathione and glutathione peroxidase (GPx) in mouse heart lysates; type: in vivo
Method: To evaluate the degree of oxidative stress in treated mice, levels of the antioxidants glutathione and glutathione peroxidase (GPx) were evaluated by western blot and ELISA, respectively, in mouse heart lysates.

[4] = Blood levels of rapamycin 2 hours after oral delivery (FIG. 10); type: in vivo, C57/B6 mice; settings: 15 mg/kg rapamycin equivalent, 2 hours post delivery, HPLC
Excerpt: FIG. 10 illustrates blood levels of rapamycin following oral delivery of polymeric nanoparticles. Rapamycin was encapsulated in nanoparticles comprised of increasing order of acrylic acid (AA) percentage in the co-polymeric composition. The nanoparticles were either administered as is, or after surface PEGylation. Compared are: Control A (rapamycin suspended in water); rapamycin nanoparticle comprised of NIPAAM:VP:AA in a ratio of 60:30:10 (designated as NVA631); rapamycin nanoparticle comprised of NIPAAM:VP:AA in a ratio of 60:20:20 (designated as NVA622); rapamycin nanoparticle comprised of NIPAAM:VP:AA in a ratio of 60:10:30 (designated as NVA613); and rapamycin nanoparticle comprised of NIPAAM:MMA:AA in a ratio of 60:20:20 (designated as NMA622). The corresponding PEGylated nanoparticles (PEG-NVA-631, PEG-NVA-622, PEG-NVA-613, and PEG-NMA-622) encapsulating rapamycin are designated as shaded bars. […] Blood levels are measured by HPLC from samples obtained at 2 hours post oral delivery.
Rapamycin is a poorly water soluble drug that has low oral bioavailability. […] At 2 hours post oral administration, the mice were bled and rapamycin concentrations in the blood were determined by high performance liquid chromatography (HPLC). […]

[5] = Solubilization of poorly water soluble drugs in water (FIG. 2); type: physicochemical; settings: visual
BxPC3 = assay: In vitro cell viability (MTT) assay with gemcitabine, BxPC3 (FIG. 9); type: cell-based, human; settings: BxPC3, 96 hours
Method: FIG. 9 illustrates in vitro cell viability (MTT assay) performed using the water-soluble drug gemcitabine conjugated to the acrylic acid (AA) surface reactive functional group of polymeric nanoparticle. Unlike the poorly water drugs that are encapsulated within the nanoparticle, water soluble drugs like gemcitabine can be conjugated to the nanoparticle surface, rendering this compound amenable to oral delivery. Human pancreatic cancer cell line BxPC3 is incubated with increasing dosages of either free gemcitabine (black bar), nano-gemcitabine (white bar), void polymer (grey bar), or PBS solvent (patterned bar). UT=untreated. […] All assays were performed in triplicate and means and standard deviations are plotted.
Gemcitabine is a water soluble compound, and thus differs from the poorly water soluble drugs discussed above that are encapsulated within the hydrophobic core of the polymeric nanoparticles. Herein, we describe the chemical conjugation of gemcitabine, as one illustrative example of water soluble drugs, to the hydrophilic surface of the polymeric nanoparticles. Such conjugation is expected to render gemcitabine amenable to oral delivery, utilizing the oral bioavailability properties of the said polymeric nanoparticles used as a carrier. 10 mg of NMA622 polymeric nanoparticles were dispersed in 10 ml of water by vortexing. […]

- blood levels of rapamycin [4]: essentially undetectable
- solubility in water (turbidity / transparency of solution) [5]: essentially insoluble in water
SMILES: CO[C@H]1C[C@@H]2CC[C@@H](C)[C@@](O)(O2)C(=O)C(=O)N2CCCC[C@H]2C(=O)O[C@H]([C@H](C)C[C@@H]2CC[C@@H](O)[C@H](OC)C2)CC(=O)[C@H](C)/C=C(\C)[C@@H](O)[C@@H](OC)C(=O)[C@H](C)C[C@H](C)/C=C/C=C/C=C/1C [free rapamycin, rapamycin]

- solubility in water (turbidity / transparency of solution) [5]: essentially insoluble in water
SMILES: CC(=O)O[C@H]1C(=O)[C@@]2(C)[C@H]([C@H](OC(=O)c3ccccc3)[C@]3(O)C[C@H](OC(=O)[C@H](O)[C@@H](NC(=O)c4ccccc4)c4ccccc4)C(C)=C1C3(C)C)[C@]1(OC(C)=O)CO[C@@H]1C[C@@H]2O [free paclitaxel, paclitaxel]

The next lines start with the molecule.

SMILES: COc1cccc2c1C(=O)c1c(O)c3c(c(O)c1C2=O)C[C@@](O)(C(=O)CO)C[C@@H]3O[C@H]1C[C@H](N)[C@H](O)[C@H](C)O1 [DOX, doxorubicin]
- patients developing congestive heart failure (CHF) ([1]; cumulative dose of 550 mg/m2): 26%
- frequency of CHF in pediatric acute lymphoblastic leukemia (ALL) patients ([1]; pediatric ALL patients): ≤ 57%
- Hemoglobin and leukocyte counts (C57BL/6 wild-type mice [2]): reduced
- Hemoglobin (Hb) level, average (C57BL/6 wild-type mice [2]; control 12.5 g/dL): 7.5 g/dL
- glutathione level (western blot) (C57BL/6 wild-type mice [3]): marked decrease
- glutathione peroxidase (GPx) level (ELISA) (C57BL/6 wild-type mice [3]): marked decrease

SMILES: CO[C@H]1/C=C/O[C@@]2(C)Oc3c(C)c(O)c4c(O)c(c(/C=N/N5CCN(C)CC5)c(O)c4c3C2=O)NC(=O)/C(C)=C\C=C\[C@H](C)[C@H](O)[C@@H](C)[C@@H](O)[C@@H](C)[C@H](OC(C)=O)[C@@H]1C [free rifampicin, rifampicin]
- solubility in water (turbidity / transparency of solution) [5]: essentially insoluble in water

SMILES: Nc1ccn([C@@H]2O[C@H](CO)[C@@H](O)C2(F)F)c(=O)n1 [free gemcitabine, gemcitabine]
- activity in cell viability assay (BxPC3): comparable activity
